Experimental findings from PubChem BioAssay AID1996 are described below.

≈ marks a conversion by molar mass, not a printed value.

For this data set the following is noted: buffer; pH 7.4; 200.0 µM.
As usually defined, the solubility (kinetic) is solubility judged after dilution from a stock solution rather than from solid. Regarding `Nc1nc(C23CC4CC(CC(C4)C2)C3)[nH]c(=O)n1`, the solubility (kinetic) was > 36.9 µg/mL.

Take `CC(=O)Nc1ccc(OCC(=O)N2CCc3ccccc3C2)cc1`: the kinetic solubility was > 48.7 µg/mL. In the case of `O=C(NC(=S)Nc1ccc(CN2CCOCC2)cc1)c1cccc(F)c1` it was 27 µg/mL (≈ 72.3 µM); in that of `Cc1ccc(SCc2cn3cc(Cl)ccc3n2)cc1`, 2.9 µg/mL (≈ 10 µM). Turning to `Cc1csc(NC(=O)Cn2nc(C)c([N+](=O)[O-])c2C)n1`, the solubility (kinetic) is > 44.3 µg/mL. In the case of `CCn1c(=O)c(C(=O)NCCCc2ccccc2)c(O)c2ccccc21` it was < 0.4 µg/mL; in that of `Cc1cccc(C(=O)OC(C)CN2CCOCC2)c1.Cl` (centres undefined), 38.9 µg/mL; in that of `CC1(C)C2CCC1(CS(=O)(=O)Nc1ccccc1)C(=O)C2` (centres undefined), 42.8 µg/mL (≈ 139 µM). With `Cc1cccc(NC(=S)NC2CC3C=CC2C3)c1` (centres undefined), the kinetic solubility was 6.2 µg/mL (≈ 24 µM). This solubility kinetic is about 6.9-fold lower than that of the compound before. The figure for `COc1ccc(NC(=O)c2cc(-c3ccco3)on2)cc1OC` is 1.6 µg/mL (≈ 5.09 µM). In the case of `O=C(NC1CCCC1)C1CCN(C(=O)NCc2ccccc2)CC1` it was > 49.4 µg/mL.

As for `Cc1ccc(S(=O)(=O)N2CCOCC2)cc1NC(=O)Nc1ccc([N+](=O)[O-])cc1`, the kinetic solubility stood at 1.8 µg/mL (≈ 4.28 µM). Take `Cc1ccc(NC(=O)N2CCC(C(=O)c3ccc(F)cc3)CC2)cc1`: the solubility (kinetic) came out at 0.6 µg/mL (≈ 1.76 µM).

For `O=C1CC2(CCCC2)CC(=O)N1c1ccccc1`, the solubility (kinetic) is > 36.5 µg/mL.

`CCOC(=O)C1CCCN(C(=O)c2cc3cc(F)ccc3[nH]2)C1` (centres undefined): the solubility (kinetic) was 23.9 µg/mL (≈ 75.1 µM).

Compound `Cc1ccc(SCCOCCN2CC(C)OC(C)C2)cc1.Cl` (centres undefined) displayed a solubility (kinetic) of 42.5 µg/mL. The figure for `N#CCCC1CCCC=C1N(Cc1ccccc1)C(=O)C(Cl)Cl` (centres undefined) is > 52.7 µg/mL; for `CCOC(=O)CN1CCS(=O)(=O)CC1` it is > 33.2 µg/mL. In turn, `O=C(COC(=O)c1ccccc1Br)NC(=O)NCc1ccccc1` had a kinetic solubility of 5.1 µg/mL (≈ 13 µM). The figure for `CCOC(=O)c1sc(=S)n(Cc2ccccc2)c1C` is 3.4 µg/mL (≈ 11.6 µM); for `COc1ccc(S(=O)(=O)N2CCN(c3ccccn3)CC2)c(OC)c1` it is 52.1 µg/mL (≈ 143 µM). The figure for `O=C(CCl)Nc1c[nH]c(=O)[nH]c1=O` is > 30.5 µg/mL; for `O=C1/C(=C\c2ccco2)SC(=S)N1C1CCS(=O)(=O)C1` (centres undefined) it is 6.6 µg/mL (≈ 20 µM). In the case of `CCOc1ccc(C(=O)NCc2ccco2)cc1Cl` it was 34.5 µg/mL (≈ 123 µM). Turning to `COC(=O)c1ccc(OCC(O)CN2CCOCC2)cc1` (centres undefined), the solubility (kinetic) is > 44.3 µg/mL. In the case of `NC(=O)Cn1nc(C(F)(F)F)c2c1CCCC2` it was > 37.1 µg/mL.

`Cc1c(Cl)cccc1NC(=S)Nc1ccccn1` had a solubility (kinetic) of 1 µg/mL (≈ 3.6 µM).

For `CCOc1ccc(N2CC(C(=O)Nc3ccc4c(c3)OCCO4)CC2=O)cc1` (centres undefined), the solubility (kinetic) is > 57.4 µg/mL. `O=C(Nc1nc2cc3c(cc2s1)OCO3)c1ccc(N2C(=O)CCC2=O)cc1` returned a kinetic solubility of 1.1 µg/mL (≈ 2.78 µM). Consider `CCCn1c(SCC(=O)N(CC)CC)nnc1-c1ccncc1`, for which the solubility (kinetic) is > 50 µg/mL. In the case of `Cc1onc(C(=O)NC2CCCCC2)c1[N+](=O)[O-]`, the kinetic solubility was > 38 µg/mL. The figure for `O=C(COC(=O)/C=C/c1ccco1)NCc1ccc(Cl)cc1Cl` is 7.6 µg/mL (≈ 21.5 µM). The figure for `Cc1noc(C)c1S(=O)(=O)Nc1cccc(CO)c1` is > 42.3 µg/mL. In the case of `COc1ccc(NC(=S)NCc2ccc(F)cc2)cc1` it was > 43.6 µg/mL. In turn, `Cc1ccc(C(=O)N2CCN(c3ccc([N+](=O)[O-])cc3)CC2)o1` came in with a kinetic solubility of 40.2 µg/mL (≈ 127 µM). In the case of `CN1CC(c2ccccc2)Oc2ccccc2C1=S` (centres undefined) it was 5.6 µg/mL (≈ 20.8 µM); in that of `Cc1[nH]c(=S)c(C#N)c(-c2ccco2)c1C(=O)N(C)C`, > 43.1 µg/mL. The figure for `O=C1NC(=Nc2ccccc2Br)SC1(CO)CO` is > 49.7 µg/mL; for `Cc1ccc(C(=O)NNC(=O)c2ccncc2)cc1[N+](=O)[O-]` it is > 45 µg/mL.

Consider `CC(C#N)OC(=O)c1cccnc1SCC(=O)Nc1ccc2c(c1)OCO2` (centres undefined), for which the solubility (kinetic) turned out to be 20.8 µg/mL (≈ 54 µM). The figure for `COc1ccc(Cl)cc1/C=C1/C(=O)ON=C1C` is 29 µg/mL (≈ 115 µM).

Compound `O=C(NCCc1ccc(Cl)cc1)c1ccc2ccccc2n1` gave a solubility (kinetic) of 5.9 µg/mL (≈ 19 µM). In the case of `CC(NC(=O)CCC(=O)N1CCCCCC1)c1ccccc1` (centres undefined) it was > 45.4 µg/mL. As to `O=C(O)c1cncc(C#Cc2ccccc2)c1`, the solubility (kinetic) was > 33.5 µg/mL.

In turn, `CC(=O)c1c(C)[nH]c(C(=O)OCCOc2ccccc2)c1C` showed a kinetic solubility of 1.3 µg/mL (≈ 4.31 µM). In the case of `COc1cccc(N2CCN(C(=S)Nc3ccccc3)CC2)c1` it was 2.9 µg/mL (≈ 8.86 µM); in that of `O=C(CNC(=O)c1ccccc1)OCc1cccc(Br)c1`, 46.4 µg/mL (≈ 133 µM); in that of `Cc1[nH]c2ccccc2c1-c1nc(N)sc1C`, > 36.5 µg/mL. In the case of `CCN(CC)c1ccc(Nc2nc(Cl)ncc2Br)cc1` it was 12.8 µg/mL (≈ 36 µM); in that of `Cc1cc(C)nc(Nc2ccc(F)cc2)n1`, > 32.6 µg/mL; in that of `O=C(c1cccnc1Cl)N(Cc1ccccc1)Cc1ccccc1`, 39.5 µg/mL (≈ 117 µM). In the case of `Cc1ccccc1C(=O)OC(C)CN1CCN(C)CC1.Cl` (centres undefined), the kinetic solubility is > 46.9 µg/mL.

Take `COc1ccc(S(=O)(=O)NC2CCCC2)c(OC)c1`: the solubility (kinetic) is > 42.8 µg/mL.

On to `Cc1ccc(NC(=O)N[C@@H](CC(C)C)C(=O)O)c(C)c1`, for which the kinetic solubility was > 41.8 µg/mL. The figure for `Cc1ccc(OCCNC(=O)c2ccc(C)cc2)cc1` is 3.8 µg/mL (≈ 14.1 µM); for `CN(C(=O)c1ccncc1)C1CCCCC1` it is > 32.7 µg/mL. The figure for `CCC(=O)Nc1cc2[nH]c(=O)cc(C)c2cc1C` is 33.4 µg/mL (≈ 137 µM); for `Cc1ccc(C(=O)NC2CCc3ccccc3C2=O)cc1` (centres undefined) it is 5.8 µg/mL (≈ 20.8 µM); for `COc1ccc(C2(C)NC(=O)NC2=O)cc1OC` (centres undefined) it is > 37.5 µg/mL. The figure for `O=C(CSc1ccccc1)N1CCN(C(=O)c2ccco2)CC1` is > 49.6 µg/mL. As for `Cc1ccc(N2CC(C(=O)NC3CC3)CC2=O)cc1Cl` (centres undefined), the kinetic solubility is > 43.9 µg/mL. The figure for `O=C(N/N=C/c1ccncc1)C12CC3CC(CC(C3)C1)C2` is > 42.5 µg/mL; for `CC(C)CNc1nc(N)c([N+](=O)[O-])c(N2CCCCCC2)n1` it is 4.5 µg/mL (≈ 14.6 µM). `COC(=O)c1ccc(OC(=O)N2CCOCC2)cc1` registered a solubility (kinetic) of 33.6 µg/mL (≈ 127 µM). As to `CCOC(=O)CCCCCN1C(=O)c2cccc3cccc(c23)C1=O`, the solubility (kinetic) was 6.4 µg/mL (≈ 18.9 µM). In the case of `Cc1ccc(-n2c(C)cc(/C=C3\SC(=O)NC3=O)c2C)cc1` it was < 0.3 µg/mL. In the case of `C=CCOn1c(=O)c(-c2ccc(Br)cc2)[n+]([O-])c2ccccc21` it was 0.4 µg/mL (≈ 1.07 µM). The figure for `O=C(NCCN1CCCCC1)Nc1ccc(Cl)cc1` is > 42.3 µg/mL.

For the compound `CC(=O)Nc1ccc2nc(-c3ccco3)[nH]c2c1`, the solubility (kinetic) was > 36.2 µg/mL. The figure for `Cc1ccccc1Nc1c([N+](=O)[O-])ccc2nonc12` is 0.2 µg/mL (≈ 0.74 µM); for `O=C(NCc1ccccc1)c1nccnc1CO` it is > 36.5 µg/mL.

On to `Cc1ccc2cccc(OCC(=O)N3CC(C)CC(C)C3)c2n1` (centres undefined), for which the solubility (kinetic) was 46.2 µg/mL (≈ 148 µM). Regarding `O=C1CC(Sc2ccc(Cl)cc2)C(=O)N1Cc1ccncc1` (centres undefined), the kinetic solubility was 18.9 µg/mL (≈ 56.8 µM). The figure for `CC(NC(=O)COC(=O)C1CCCCC1)c1ccccc1` (centres undefined) is > 43.4 µg/mL. With `CC(NC(=O)Nc1cccc([N+](=O)[O-])c1)c1ccc2c(c1)OCO2` (centres undefined), the solubility (kinetic) amounted to 2.2 µg/mL (≈ 6.68 µM). In the case of `CC(=O)N/C(=N\c1nc(C)cc(C)n1)Nc1ccccc1Cl` it was 0.5 µg/mL (≈ 1.57 µM). In the case of `Cc1cc(C)nc(NC(C)(C)C(=O)O)n1` it was > 31.4 µg/mL. The figure for `O=C(COC(=O)C1CC(=O)N(Cc2ccccc2)C1)Nc1cccc([N+](=O)[O-])c1` (centres undefined) is > 59.6 µg/mL. In turn, `COc1ccc(S(=O)(=O)N(C)CC(=O)NCCN2CCOCC2)cc1` came in with a solubility (kinetic) of 51.5 µg/mL (≈ 139 µM). The figure for `CSCCC(NC(=O)C1CCCCC1)c1nc2ccccc2[nH]1` (centres undefined) is 23 µg/mL (≈ 69.4 µM); for `CCC(O)c1nc2ccccc2n1CCc1ccccc1` (centres undefined) it is 17.1 µg/mL (≈ 61 µM); for `CCc1ccc(C(=O)Nc2cccnc2Oc2ccc(Cl)cc2)cc1` it is 1.5 µg/mL (≈ 4.25 µM). The figure for `S=C(NC1CCCCC1)N1CCN(c2ncccn2)CC1` is 9.6 µg/mL (≈ 31.4 µM); for `O=C(O)c1ccccc1C(=O)Nc1ccc(Oc2ccccc2)cc1` it is > 50 µg/mL; for `Cc1nc2ccccc2c(=O)n1-c1cccc([N+](=O)[O-])c1` it is 36.4 µg/mL (≈ 129 µM).

As for `O=C(/C=C/c1ccccc1)NC(=O)c1ccccc1O`, the solubility (kinetic) is 1.4 µg/mL (≈ 5.24 µM). This solubility kinetic is about 26-fold lower than that of the compound before. In the case of `CCc1cccc(C)c1NC(=O)CN1C(=O)NC(C)(CCC(C)C)C1=O` (centres undefined) it was > 53.9 µg/mL; in that of `Cc1ccccc1OCC(=O)NCC(c1ccco1)N1CCCCC1` (centres undefined), 40.1 µg/mL (≈ 117 µM). In the case of `CCCCN(C(=O)c1ccncc1)c1c(N)n(CCC)c(=O)[nH]c1=O` it was 37.1 µg/mL (≈ 107 µM); in that of `CS(=O)(=O)Cc1ccc(C(=O)N2CCN(C(=O)c3cccs3)CC2)cc1`, > 58.9 µg/mL; in that of `O=C(Nc1cccc(F)c1)Nc1ccc2c(c1)CCC2`, < 0.3 µg/mL. As to `COc1ccccc1NC(=S)NC12CN3CN(CN(C3)C1)C2`, the solubility (kinetic) came to 43.3 µg/mL (≈ 136 µM). In the case of `CCN(CC)C(=O)Cn1cc(SCC(=O)NC)c2ccccc21` it was 46.5 µg/mL (≈ 139 µM); in that of `CCN(CC)S(=O)(=O)c1ccc(NC(=O)c2ccc(N3CCCC3=O)cc2)cc1`, 5 µg/mL (≈ 12 µM); in that of `COc1ccc(-n2cc(-c3ccccc3)c3c(=S)nc[nH]c32)cc1`, 0.6 µg/mL (≈ 1.8 µM).

`O=C(NCc1ccco1)/C(=C\c1ccco1)NC(=O)c1ccco1` displayed a solubility (kinetic) of 47.3 µg/mL (≈ 145 µM). The figure for `COCCNC(=O)c1ccc(CSc2nc3ccccc3s2)cc1` is 27.6 µg/mL (≈ 77 µM).

For the compound `O=C(c1cc2ccccc2o1)N1CCN(c2ccccn2)CC1`, the kinetic solubility was 11.4 µg/mL (≈ 37.1 µM). This solubility kinetic lies about 2.4-fold lower than the previous one. The figure for `Oc1cccc2ccc(/C=C/c3ccccc3Cl)nc12` is < 0.6 µg/mL; for `Cc1ccc2cccc(OCC(=O)NCCC3=CCCCC3)c2n1` it is 46.5 µg/mL (≈ 143 µM). In the case of `Cc1ccc(NC(=O)CNC(=O)c2ccc(C)s2)nc1` it was > 43.4 µg/mL; in that of `CCOC(=O)C1=C(C)N(C)C(=S)NC1c1c(OCC)ccc2ccccc12` (centres undefined), < 0.4 µg/mL. With `Cc1c(-c2cccc(Cl)c2)nc2ccccc2c1C(=O)NC1CC1`, the solubility (kinetic) was > 50.5 µg/mL.

As to `CCOC(=O)c1[nH]c(C)c(C(=O)OC)c1C`, the kinetic solubility is > 33.8 µg/mL.
